# In the supplement of paper PMC10307832:
# Experiments:
# Assay in all cases: relative viability (nuclei count vs DMSO), 5 days (fraction); higher = more cells survive
# Sulindac + Bortezomib = compound: CC1=C(CC(=O)O)c2cc(F)ccc2/C1=C\c1ccc([S+](C)[O-])cc1 [Sulindac] + CC(C)C[C@H](NC(=O)[C@H](Cc1ccccc1)NC(=O)c1cnccn1)B(O)O [Bortezomib] (partner 0.002 µM)
# How it was run: (§1)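 Values are medians from duplicate plates. Each reflects relative viability, defined as the nuclei count of treated wells over that of vehicle wells. Lung cancer cell lines in 1536-well plates were pin-tool dosed one day after seeding with one drug alone or with a fixed anchor-drug dose plus five library-drug doses (not always all listed) in √10 steps, then fixed, stained and imaged at 4× after 5 days.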
# [1] = compound: CN[C@@H]1C[C@H]2O[C@@](C)([C@@H]1OC)n1c3ccccc3c3c4c(c5c6ccccc6n2c5c31)C(=O)NC4 [Staurosporine] + CS(=O)(=O)CCNCc1ccc(-c2ccc3ncnc(Nc4ccc(OCc5cccc(F)c5)c(Cl)c4)c3c2)o1 [Lapatinib] (partner 2 µM)
# How it was run: as §1
# [2] = compound: CN[C@@H]1C[C@H]2O[C@@](C)([C@@H]1OC)n1c3ccccc3c3c4c(c5c6ccccc6n2c5c31)C(=O)NC4 [Staurosporine] + Nc1nc2[nH]cc(CCc3ccc(C(=O)N[C@@H](CCC(=O)O)C(=O)O)cc3)c2c(=O)[nH]1 [Pemetrexed] (partner 0.2 µM)
# How it was run: as §1
# [3] = compound: O=c1[nH]cc(F)c(=O)[nH]1 [5-Fluorouracil] + CC1(C)CCC(c2ccc(Cl)cc2)=C(CN2CCN(c3ccc(C(=O)NS(=O)(=O)c4ccc(N[C@H](CCN5CCOCC5)CSc5ccccc5)c(S(=O)(=O)C(F)(F)F)c4)cc3)CC2)C1 [Navitoclax] (partner 0.5 µM)
# How it was run: as §1
cell line,measurement,setting,value
UMC-11,relative viability,Sulindac + Bortezomib; first compound 0.08 µM,0.952
same,relative viability,Sulindac + Bortezomib; first compound 0.253 µM,0.996
same,relative viability,Sulindac + Bortezomib; first compound 0.8 µM,0.359
same,relative viability,Sulindac + Bortezomib; first compound 2.53 µM,0.703
same,relative viability,Sulindac + Bortezomib; first compound 8 µM,0.846
same,relative viability,[1]; first compound 0.005 µM,1.14
same,relative viability,[1]; first compound 0.01581 µM,0.158
same,relative viability,[1]; first compound 0.05 µM,0.408
same,relative viability,[1]; first compound 0.1581 µM,0.141
same,relative viability,[1]; first compound 0.5 µM,0.0855
same,relative viability,[2]; first compound 0.005 µM,0.695
same,relative viability,[2]; first compound 0.01581 µM,0.472
same,relative viability,[2]; first compound 0.05 µM,0.387
same,relative viability,[2]; first compound 0.1581 µM,0.104
same,relative viability,[2]; first compound 0.5 µM,0.0932
same,relative viability,[3]; first compound 0.02 µM,0.386
same,relative viability,[3]; first compound 0.2 µM,0.322
same,relative viability,[3]; first compound 0.6325 µM,0.286
same,relative viability,[3]; first compound 2 µM,0.241
